Assay results: patent publication US10808003B2, “Amphipathic molecule based on tandem malonate and use thereof” (Industry-University Cooperation Foundation Hanyang …, priority 2017, dated 2020)

What was measured:
[1] = molecular target: T1, uric acid-xanthine/H+ symporter (UapA) (Emericella nidulans, UniProt Q07307, G411V); test: Thermal/structural stability of UapA by CPM fluorescence assay; type: biochemical, Aspergillus nidulans; settings: for ability to conserve UapA transporter in a folded state: 125 minutes at 40° C.
T1 construct: GFP; made in house; host or cells: Saccharomyces cerevisiae FGY217
T1 sequence (Q07307 12-574 G411V): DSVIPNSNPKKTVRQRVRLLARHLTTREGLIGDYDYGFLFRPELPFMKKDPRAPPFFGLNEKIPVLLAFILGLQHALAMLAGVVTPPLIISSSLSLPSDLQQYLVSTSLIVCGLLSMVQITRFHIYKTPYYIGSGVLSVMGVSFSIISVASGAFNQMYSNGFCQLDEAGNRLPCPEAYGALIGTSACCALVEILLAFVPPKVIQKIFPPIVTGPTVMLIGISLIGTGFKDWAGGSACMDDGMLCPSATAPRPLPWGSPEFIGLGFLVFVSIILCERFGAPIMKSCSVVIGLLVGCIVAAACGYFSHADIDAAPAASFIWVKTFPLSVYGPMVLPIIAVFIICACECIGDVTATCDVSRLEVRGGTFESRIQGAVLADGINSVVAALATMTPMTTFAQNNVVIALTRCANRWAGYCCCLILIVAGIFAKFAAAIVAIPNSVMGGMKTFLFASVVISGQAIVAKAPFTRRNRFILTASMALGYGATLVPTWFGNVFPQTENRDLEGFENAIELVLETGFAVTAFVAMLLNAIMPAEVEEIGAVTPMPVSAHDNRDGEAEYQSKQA
Procedure: An experiment of measuring structural stability of a uric acid-xanthine/H+ symporter (UapA) separated from Aspergillus nidulans by TMG was performed. The structural stability of UapA was evaluated using a sulfhydryl-specific fluorophore and N-[4-(7-diethylamino-4-methyl-3-coumarinyl)phenyl]maleimide (CPM).
Specifically, UapAG411V1-11 (hereinafter, referred to as “UapA”) expressed as a GFP fusion protein from a Saccharomyces cerevisiae FGY217 strain, and the protein was separated using a sample buffer (20 mM Tris (pH 7.5), 150 mM NaCl, 0.03% DDM, 0.6 mM xanthine) according to a method disclosed in the article written by J. Leung et al. (Mol. Membr. Biol. 2013, 30, 32-42). The protein having a molecular weight of 100 kDa was concentrated to approximately 10 mg/mL using a cut-off filter (Millipore). The protein was diluted with a buffer containing each of the TMG-As (TMG-A11, TMG-A12, TMG-A13 and TMG-A14), TMG-Ts (TMG-T11, TMG-T12, TMG-T13 and TMG-T14), MNG-3 or DDM at a ratio of 1:150 to reach the final concentration of CMC+0.04 wt % or CMC+0.2 wt % in a Greiner 96-well plate. A CPM dye (Invitrogen) stored in DMSO (Sigma) was diluted with a staining buffer (20 mM Tris (pH 7.5), 150 mM NaCl, 0.03% DDM, 5 mM EDTA), and 3 μL of the staining buffer was added to each sample. The reaction mixture was incubated at a constant temperature for 125 minutes at 40° C. Fluorescence emission was recorded using a microplate spectrofluorometer set to each of excitation and emission wavelengths of 387 nm and 463 nm. A relative amount of folded proteins was plotted over time using GraphPad Prism.

[2] = Hydrodynamic radius of micelles by dynamic light scattering (DLS); type: physicochemical; settings: for Rh (nm), hydrodynamic radius of micelles: micelles formed by each agent at 1.0 wt %; for micelle size and homogeneity in words: 1.0 wt %, FIGS. 5 and 6
Procedure: A method of measuring the radius of the micelles is not particularly limited, and any method well known in the art, for example, a DLS test may be used.
(§1) Specifically, a CMC was measured using fluorescent staining and diphenylhexatriene (DPH), and the hydrodynamic radii (Rh) of micelles formed by each agent (1.0 wt %) were measured by a DLS test. The measured results were compared with those for the conventional amphipathic molecule (detergent), DDM, and thus are shown in Table 1.

[3] = Critical micelle concentration by fluorescent staining with diphenylhexatriene (DPH); type: physicochemical; settings: aqueous solution
Procedure: A method of measuring CMC is not particularly limited, and any method well known in the art, for example, a fluorescent staining method using diphenylhexatriene (DPH) may be used.
as §1

[4] = tested on: LeuT (leucine transporter); test: LeuT stability by [3H]-Leu substrate binding, scintillation proximity assay (SPA); type: biochemical, Aquifex aeolicus; settings: for substrate-binding ability of LeuT: TMGs or DDM at CMC+0.04 wt %, 10 days at room temperature; for activity of LeuT after incubation, relative to DDM: CMC+0.04 wt %, after incubation at room temperature; for activity of LeuT after incubation, relative to DDM / activity of LeuT over time: FIG. 13a; for activity of LeuT over time: TMMs or DDM at CMC+0.04 wt %, incubation at room temperature
Procedure: An experiment of measuring LeuT protein stability for TMGs and TMMs was performed. (a) CMC+0.04 wt % or (b) CMC+0.2 wt % of each amphipathic molecule was used, and the evaluation of the LeuT protein stability was performed by taking an advantage of a characteristic of LeuT binding to a substrate through a scintillation proximity assay (SPA) using [^3H]-Leu. […]
Specifically, wild type LeuT (leucine transporter) derived from a thermophilic bacterium, Aquifex aeolicus, was purified by a previously-disclosed method (G. Deckert et al., Nature 1998, 392, 353-358). LeuT was expressed in E. coli C41 (DE3) transformed with pET16b encoding a C-terminus 8×His-tagged transporter (the expression plasmid was provided by Dr E. Gouaux, Vollum Institute, Portland, Oreg., USA). In summary, following isolation of a bacterial membrane and lysis with 1% (w/v) DDM, the protein was allowed to bind to a Ni^2+-NTA resin (Life Technologies, Denmark), and eluted in 20 mM Tris-HCl (pH 8.0), 1 mM NaCl, 199 mM KCl, 0.05% (w/v) DDM and 300 mM imidazole. Afterward, the purified LeuT (approximately 1.5 mg/ml) was diluted with the same buffer used above, from which DDM and imidazole were removed, and then supplemented with TMGs or DDM at the final concentration of CMC+0.04% (w/v). […] SPA was performed using a buffer containing 450 mM NaCl and each of the TMGs and TMMs at the predetermined concentration. The SPA reaction is performed in the presence of 20 nM [^3H]-Leucine and 1.25 mg/ml copper chelate (His-Tag) YSi beads (Perkin Elmer, Denmark). A total [^3H]-Leucine binding degree of each sample was measured using a MicroBeta liquid scintillation counter (Perkin Elmer).

Compound	ability to maintain the UapA transporter structure, comparison with MNG-3 and DDM ([1]; concentration not given)	Rh (nm), hydrodynamic radius of micelles [2]	CMC [3]	CMC (wt %) [3]	ability to conserve UapA transporter in a folded state ([1]; CMC+0.04 wt %, FIG. 9)	ability to conserve UapA transporter in a folded state ([1]; CMC+0.2 wt %, FIG. 10)	substrate-binding ability of LeuT [4]	micelle size and homogeneity in words [2]	activity of LeuT after incubation, relative to DDM [4]	activity of LeuT over time [4]	overall LeuT stabilisation characteristic among TMMs ([4]; CMC+0.04 wt % and CMC+0.2 wt %, FIGS. 13a and 13b)
CCCCCCCCCCC(CCCCCCCCCC)(CO[C@@H]1O[C@H](CO)[C@@H](O[C@H]2O[C@H](CO)[C@@H](O)[C@H](O)[C@H]2O)[C@H](O)[C@H]1O)CO[C@@H]1O[C@H](CO)[C@@H](O[C@H]2O[C@H](CO)[C@@H](O)[C@H](O)[C@H]2O)[C@H](O)[C@H]1O [MNG-3, reference compound]	a little superior to DDM										
CCCCCCCCCCCC(CCCC(CCCCCCCCCCC)(CO[C@@H]1OC(CO)[C@@H](O)C(O)C1O)CO[C@@H]1OC(CO)[C@@H](O)C(O)C1O)(CO[C@@H]1OC(CO)[C@@H](O)C(O)C1O)CO[C@@H]1OC(CO)[C@@H](O)C(O)C1O (stereo partly drawn) [TMG-A11]		3.1 ± 0.15 nm	~0.015 mM	~0.0017 wt %	the least excellent in transporter stability	the least effective, and had lower stability than DDM					
CCCCCCCCCCCOCC(CO[C@@H]1OC(CO)[C@@H](O)C(O)C1O)(CO[C@@H]1OC(CO)[C@@H](O)C(O)C1O)CSCC(COCCCCCCCCCCC)(CO[C@@H]1OC(CO)[C@@H](O)C(O)C1O)CO[C@@H]1OC(CO)[C@@H](O)C(O)C1O (stereo partly drawn) [TMG-T11]		3.0 ± 0.07 nm	~0.020 mM	~0.0025 wt %		the least effective, and had lower stability than DDM	a better characteristic than DDM				
CCCCCCCCCCCCOCC(CO[C@@H]1OC(CO)[C@@H](O)C(O)C1O)(CO[C@@H]1OC(CO)[C@@H](O)C(O)C1O)CSCC(COCCCCCCCCCCCC)(CO[C@@H]1OC(CO)[C@@H](O)C(O)C1O)CO[C@@H]1OC(CO)[C@@H](O)C(O)C1O (stereo partly drawn) [TMG-T12]		3.1 ± 0.06 nm	~0.015 mM	~0.0019 wt %			a better characteristic than DDM				
CC(C)CCC[C@@H](C)C1CCC2C3CCC4CC(OCC(CO[C@@H]5OC(CO)[C@@H](O[C@H]6OC(CO)[C@@H](O)C(O)C6O)C(O)C5O)(CO[C@@H]5OC(CO)[C@@H](O[C@H]6OC(CO)[C@@H](O)C(O)C6O)C(O)C5O)CSCC(COC5CCC6(C)C(CCC7C6CCC6(C)C7CCC6[C@H](C)CCCC(C)C)C5)(CO[C@@H]5OC(CO)[C@@H](O[C@H]6OC(CO)[C@@H](O)C(O)C6O)C(O)C5O)CO[C@@H]5OC(CO)[C@@H](O[C@H]6OC(CO)[C@@H](O)C(O)C6O)C(O)C5O)CCC4(C)C3CCC21C (stereo partly drawn) [TMM-A27]		4.1 ± 0.10 nm	~0.006 mM	~0.00014 wt %				large	protein activity similar to DDM		
CCCCCCCCCCC(CCCCCCCCCC)COCC(CO[C@@H]1OC(CO)[C@@H](O[C@H]2OC(CO)[C@@H](O)C(O)C2O)C(O)C1O)(CO[C@@H]1OC(CO)[C@@H](O[C@H]2OC(CO)[C@@H](O)C(O)C2O)C(O)C1O)CSCC(COCC(CCCCCCCCCC)CCCCCCCCCC)(CO[C@@H]1OC(CO)[C@@H](O[C@H]2OC(CO)[C@@H](O)C(O)C2O)C(O)C1O)CO[C@@H]1OC(CO)[C@@H](O[C@H]2OC(CO)[C@@H](O)C(O)C2O)C(O)C1O (stereo partly drawn) [TMM-C22]		3.6 ± 0.09 nm	~0.002 mM	~0.00044 wt %					two-fold higher than that of the protein dissolved in DDM	slightly increased over time	
CCCCCCCCCCCC(CCCCCCCCCCC)COCC(CO[C@@H]1OC(CO)[C@@H](O[C@H]2OC(CO)[C@@H](O)C(O)C2O)C(O)C1O)(CO[C@@H]1OC(CO)[C@@H](O[C@H]2OC(CO)[C@@H](O)C(O)C2O)C(O)C1O)CSCC(COCC(CCCCCCCCCCC)CCCCCCCCCCC)(CO[C@@H]1OC(CO)[C@@H](O[C@H]2OC(CO)[C@@H](O)C(O)C2O)C(O)C1O)CO[C@@H]1OC(CO)[C@@H](O[C@H]2OC(CO)[C@@H](O)C(O)C2O)C(O)C1O (stereo partly drawn) [TMM-C24]		3.9 ± 0.08 nm	~0.0015 mM	~0.00034 wt %					two-fold higher than that of the protein dissolved in DDM	slightly increased over time	the most excellent characteristic and was superior to DDM
CCCCCCCCCCCCC(CCCCCCCCCCCC)COCC(CO[C@@H]1OC(CO)[C@@H](O[C@H]2OC(CO)[C@@H](O)C(O)C2O)C(O)C1O)(CO[C@@H]1OC(CO)[C@@H](O[C@H]2OC(CO)[C@@H](O)C(O)C2O)C(O)C1O)CSCC(COCC(CCCCCCCCCCCC)CCCCCCCCCCCC)(CO[C@@H]1OC(CO)[C@@H](O[C@H]2OC(CO)[C@@H](O)C(O)C2O)C(O)C1O)CO[C@@H]1OC(CO)[C@@H](O[C@H]2OC(CO)[C@@H](O)C(O)C2O)C(O)C1O (stereo partly drawn) [TMM-C26]		4.3 ± 0.07 nm	~0.0015 mM	~0.00034 wt %					protein activity similar to DDM		
CC1CCC2(OC1)OC1CC3C4CC=C5CC(OCC(CO[C@@H]6OC(CO)[C@@H](O[C@H]7OC(CO)[C@@H](O)C(O)C7O)C(O)C6O)(CO[C@@H]6OC(CO)[C@@H](O[C@H]7OC(CO)[C@@H](O)C(O)C7O)C(O)C6O)CSCC(COC6CCC7(C)C(=CCC8C7CCC7(C)C8CC8OC9(CCC(C)CO9)C(C)C87)C6)(CO[C@@H]6OC(CO)[C@@H](O[C@H]7OC(CO)[C@@H](O)C(O)C7O)C(O)C6O)CO[C@@H]6OC(CO)[C@@H](O[C@H]7OC(CO)[C@@H](O)C(O)C7O)C(O)C6O)CCC5(C)C4CCC3(C)C1C2C (stereo partly drawn) [TMM-D27]		3.1 ± 0.07 nm	~0.010 mM	~0.0024 wt %				relatively small micelles	protein activity similar to DDM		
CC(C)CCC[C@@H](C)C1CCC2C3CC=C4CC(OCC(CO[C@@H]5OC(CO)[C@@H](O[C@H]6OC(CO)[C@@H](O)C(O)C6O)C(O)C5O)(CO[C@@H]5OC(CO)[C@@H](O[C@H]6OC(CO)[C@@H](O)C(O)C6O)C(O)C5O)CSCC(COC5CCC6(C)C(=CCC7C6CCC6(C)C7CCC6[C@H](C)CCCC(C)C)C5)(CO[C@@H]5OC(CO)[C@@H](O[C@H]6OC(CO)[C@@H](O)C(O)C6O)C(O)C5O)CO[C@@H]5OC(CO)[C@@H](O[C@H]6OC(CO)[C@@H](O)C(O)C6O)C(O)C5O)CCC4(C)C3CCC21C (stereo partly drawn) [TMM-E27]		4.7 ± 0.10 nm	~0.008 mM	~0.00018 wt %				large	protein activity similar to DDM		
